Laboratory results published in patent US8623864B2, “Thioridazine and derivatives thereof for reversing anti-microbial drug-resistance” (NOA Sic Aps, priority 2003, dated 2014).
Read-outs that look alike come from different tables or passages of the source.

Legend:
[1] = system: Enterococcus faecalis; test: Microdilution checkerboard, antibiotic plus resistance modifier; type: cell-based
[2] = system: human Enterococcus faecalis; test: as above; type: cell-based; settings: Enterococcus faecalis, drug alone
[3] = system: tumour cell lines; settings: Akiyama et al. 1986; cited from earlier work
[4] = system: a known bacterial strain; test: MIC of erythromycin and thioridazine, alone and combined; type: cell-based
[5] = system: Mycobacterium tuberculosis; settings: Ordway et al. 2003; cited from earlier work
[6] = system: a common bacterial strain; test: MIC of oxacillin alone and combined with thioridazine; type: cell-based; settings: read-out: effective MIC
[7] = strain A, each drug in the combination AMP + THIO
[8] = strain A, each drug in the combination VAN + THIO
[9] = strain B, each drug in the combination AMP + THIO
[10] = strain B, each drug in the combination VAN + THIO
[11] = strain C, each drug in the combination AMP + THIO
[12] = strain C, each drug in the combination VAN + THIO
[13] = strain D, each drug in the combination AMP + THIO
[14] = strain D, each drug in the combination VAN + THIO
[15] = strain E, each drug in the combination AMP + THIO
[16] = strain E, each drug in the combination VAN + THIO
[17] = strain A, read-out: MIC of single drug (microdilution checkerboard)
[18] = strain B, read-out: MIC of single drug (microdilution checkerboard)
[19] = strain C, read-out: MIC of single drug (microdilution checkerboard)
[20] = strain D, read-out: MIC of single drug (microdilution checkerboard)
[21] = strain E, read-out: MIC of single drug (microdilution checkerboard)
[22] = strain A, each drug in the combination AMP + PCP
[23] = strain A, each drug in the combination VAN + PCP
[24] = strain B, each drug in the combination AMP + PCP
[25] = strain B, each drug in the combination VAN + PCP
[26] = strain C, each drug in the combination AMP + PCP
[27] = strain C, each drug in the combination VAN + PCP
[28] = strain D, each drug in the combination AMP + PCP
[29] = strain D, each drug in the combination VAN + PCP
[30] = strain E, each drug in the combination AMP + PCP
[31] = strain E, each drug in the combination VAN + PCP

Row | Structure (SMILES) | Combination of drugs (MIC) [1, 7] | Combination of drugs (MIC) [1, 8] | Combination of drugs (MIC) [1, 9] | Combination of drugs (MIC) [1, 10] | Combination of drugs (MIC) [1, 11] | Combination of drugs (MIC) [1, 12] | Combination of drugs (MIC) [1, 13] | Combination of drugs (MIC) [1, 14] | Combination of drugs (MIC) [1, 15] | Combination of drugs (MIC) [1, 16] | MIC [2, 17] | MIC [2, 18] | MIC [2, 19] | MIC [2, 20] | MIC [2, 21] | MIC [4] | Combination of drugs (MIC) [1, 22] | Combination of drugs (MIC) [1, 23] | Combination of drugs (MIC) [1, 24] | Combination of drugs (MIC) [1, 25] | further results
1 | CSc1ccc2c(c1)N(CCC1CCCCN1C)c1ccccc1S2 (racemic) [THIO, thioridazine] | 16 µg/mL | 8 µg/mL | 8 µg/mL | 32 µg/mL | AMP (4) + THIO (4) μg/ml | 4 µg/mL | 4 µg/mL | 8 µg/mL | 8 µg/mL | 2 µg/mL | 32 µg/mL | 32 µg/mL | 32 µg/mL | 32 µg/mL | 32 µg/mL | 16 µg/mL | – | – | – | – | Reversal of resistance to antineoplastic agents [3]: effective in reversing resistance to a variety of antineoplastic agents; Ability to kill bacteria in vitro [5]: kill Mycobacterium tuberculosis in vitro
2 | CC[C@H]1OC(=O)[C@H](C)[C@@H](O[C@H]2C[C@@](C)(OC)[C@@H](O)[C@H](C)O2)[C@H](C)[C@@H](O[C@@H]2O[C@H](C)C[C@H](N(C)C)[C@H]2O)[C@](C)(O)C[C@@H](C)C(=O)[C@H](C)[C@@H](O)[C@]1(C)O [Erythromycin] | – | – | – | – | – | – | – | – | – | – | – | – | – | – | – | 24 µg/mL | – | – | – | – | Erythromycin concentration needed in combination ([4]; combined with 12 μg/ml of the levorotatory isomer of thioridazine): 1 µg/mL; Erythromycin concentration needed in combination ([4]; combined with 12 μg/ml of thioridazine in racemic form): less than 8 μg/ml
3 | CN1CCN(CCCN2c3ccccc3Sc3ccc(Cl)cc32)CC1 [PCP, prochlorperazine] | – | – | – | – | – | – | – | – | – | – | 32 µg/mL | 64 µg/mL | 32 µg/mL | 32 µg/mL | 32 µg/mL | – | 0.25 µg/mL | 16 µg/mL | 16 µg/mL | 16 µg/mL | Combination of drugs (MIC) [1, 26]: 0.5 µg/mL; Combination of drugs (MIC) [1, 27]: 8 µg/mL; Combination of drugs (MIC) [1, 28]: 8 µg/mL; Combination of drugs (MIC) [1, 29]: 8 µg/mL; Combination of drugs (MIC) [1, 30]: 16 µg/mL; Combination of drugs (MIC) [1, 31]: 8 µg/mL
4 | CC1(C)S[C@@H]2[C@H](NC(=O)[C@H](N)c3ccccc3)C(=O)N2[C@H]1C(=O)O [ampicillin] | 1 µg/mL | – | 0.5 µg/mL | – | AMP (4) + THIO (4) μg/ml | – | 0.25 µg/mL | – | 16 µg/mL | – | 32 µg/mL | 2 µg/mL | 16 µg/mL | 1 µg/mL | 128 µg/mL | – | 32 µg/mL | – | 0.5 µg/mL | – | Combination of drugs (MIC) [1, 26]: 8 µg/mL; Combination of drugs (MIC) [1, 28]: 0.25 µg/mL; Combination of drugs (MIC) [1, 30]: 64 µg/mL
5 | Cc1onc(-c2ccccc2)c1C(=O)N[C@@H]1C(=O)N2[C@@H]1SC(C)(C)[C@@H]2C(=O)O [oxacillin] | – | – | – | – | – | – | – | – | – | – | – | – | – | – | – | – | – | – | – | – | MIC ([6]; combined with 8 μg/ml of thioridazine): 1 µg/mL; MIC ([6]; oxacillin alone, common bacterial strain): > 256 µg/mL
6 | CN[C@H](CC(C)C)C(=O)N[C@H]1C(=O)N[C@@H](CC(N)=O)C(=O)N[C@H]2C(=O)N[C@H]3C(=O)N[C@H](C(=O)N[C@H](C(=O)O)c4cc(O)cc(O)c4-c4cc3ccc4O)[C@H](O)c3ccc(c(Cl)c3)Oc3cc2cc(c3O[C@@H]2O[C@H](CO)[C@@H](O)[C@H](O)[C@H]2O[C@H]2C[C@](C)(N)[C@H](O)[C@H](C)O2)Oc2ccc(cc2Cl)[C@H]1O [vancomycin] | – | 6 µg/mL | – | 2 µg/mL | – | 64 µg/mL | – | 32 µg/mL | – | 1 µg/mL | – | – | – | – | – | – | – | 48 µg/mL | – | 1 µg/mL | Combination of drugs (MIC) [1, 27]: 64 µg/mL; Combination of drugs (MIC) [1, 29]: 32 µg/mL; Combination of drugs (MIC) [1, 31]: 0.5 µg/mL; MIC ([2]; read-out: MIC of single drug (microdilution checkerboard), strain A): 192 µg/mL; MIC ([2]; read-out: MIC of single drug (microdilution checkerboard), strain B): 4 µg/mL; MIC ([2]; read-out: MIC of single drug (microdilution checkerboard), strain C): 128 µg/mL; MIC ([2]; read-out: MIC of single drug (microdilution checkerboard), strain D): 500 µg/mL; MIC ([2]; read-out: MIC of single drug (microdilution checkerboard), strain E): 2 µg/mL
